Paper PMC5218480 (PLoS ONE, 2017)

System: MV-4-11 cells
Experiment: Gene expression microarray analysis (Affymetrix PrimeView) and GSEA
Format: cell-based, human
Design: RFU PODN (11730768_x_at) / Fold change /veh PODN (11730768_x_at) / RFU LINC00158 (11744669_a_at) / Fold change /veh LINC00158 (11744669_a_at) / RFU DUSP10 (11751237_a_at) / Fold change /veh DUSP10 (11751237_a_at) / RFU ID3 (11757404_x_at) / Fold change /veh ID3 (11757404_x_at) / RFU PLEKHG5 (11737974_s_at) / Fold change /veh PLEKHG5 (11737974_s_at) / RFU LRRC4B (11730491_at) / Fold change /veh LRRC4B (11730491_at) / RFU GIMAP4 (11747438_a_at) / Fold change /veh GIMAP4 (11747438_a_at) / RFU KRT8 (11758183_x_at) / Fold change /veh KRT8 (11758183_x_at) / RFU CNN1 (11734310_a_at) / Fold change /veh CNN1 (11734310_a_at) / RFU VPS37D (11726825_at) / Fold change /veh VPS37D (11726825_at) / RFU C10orf10 (11716522_x_at) / Fold change /veh C10orf10 (11716522_x_at) / RFU KIR2DL2 /// KIR2DL4 /// KIR2DL5A /// KIR2DL5B /// KIR2DS1 /// KIR2DS2 /// KIR2DS3 /// KIR2DS4 /// KIR3DL3 /// KIR3DL3 /// KIR3DS1 (11738374_at) / Fold change /veh KIR2DL2 /// KIR2DL4 /// KIR2DL5A /// KIR2DL5B /// KIR2DS1 /// KIR2DS2 /// KIR2DS3 /// KIR2DS4 /// KIR3DL3 /// KIR3DL3 /// KIR3DS1 (11738374_at) / RFU C1QL1 (11718748_at) / Fold change /veh C1QL1 (11718748_at) / RFU TMPRSS4 (11747572_a_at) / Fold change /veh TMPRSS4 (11747572_a_at) / RFU HAMP (11756126_x_at) / Fold change /veh HAMP (11756126_x_at) / RFU RNFT2 (11725882_a_at) / Fold change /veh RNFT2 (11725882_a_at) / RFU NR4A2 (11747474_a_at) / Fold change /veh NR4A2 (11747474_a_at) / RFU ABCC12 (11746883_a_at) / Fold change /veh ABCC12 (11746883_a_at) / RFU TMEM136 (11760407_x_at) / Fold change /veh TMEM136 (11760407_x_at) / RFU CLDN22 /// WWC2 (11732394_at) / Fold change /veh CLDN22 /// WWC2 (11732394_at) / RFU HLA-DPB1 (11760878_x_at) / Fold change /veh HLA-DPB1 (11760878_x_at) / RFU SPINT1 (11716480_a_at) / Fold change /veh SPINT1 (11716480_a_at) / RFU GAP43 (11754022_s_at) / Fold change /veh GAP43 (11754022_s_at) / RFU A4GNT (11735810_at) / Fold change /veh A4GNT (11735810_at) / RFU PRB3 (11715151_x_at) / Fold change /veh PRB3 (11715151_x_at) / RFU TUBB4B (11761932_at) / Fold change /veh TUBB4B (11761932_at) / RFU CAPN14 (11732068_a_at) / Fold change /veh CAPN14 (11732068_a_at) / RFU TMCC2 (11721928_a_at) / Fold change /veh TMCC2 (11721928_a_at) / RFU IRGQ (11745062_a_at) / Fold change /veh IRGQ (11745062_a_at) / RFU FAM174B (11720279_a_at) / Fold change /veh FAM174B (11720279_a_at) / RFU TMPRSS4 (11748680_a_at) / Fold change /veh TMPRSS4 (11748680_a_at) / RFU FAM212B (11763350_a_at) / Fold change /veh FAM212B (11763350_a_at) / RFU PLEKHG5 (11743358_a_at) / Fold change /veh PLEKHG5 (11743358_a_at) / RFU ZSCAN30 (11745921_a_at) / Fold change /veh ZSCAN30 (11745921_a_at) / RFU CMKLR1 (11741424_a_at) / Fold change /veh CMKLR1 (11741424_a_at) / RFU LOC101060620 /// MAPK8IP1 (11723275_at) / Fold change /veh LOC101060620 /// MAPK8IP1 (11723275_at) / RFU SPTSSB (11747773_x_at) / Fold change /veh SPTSSB (11747773_x_at) / RFU PRSS12 (11739890_at) / Fold change /veh PRSS12 (11739890_at) / RFU BIN1 (11741810_x_at) / Fold change /veh BIN1 (11741810_x_at) / RFU WNT11 (11732464_a_at) / Fold change /veh WNT11 (11732464_a_at) / RFU C10orf10 (11716521_a_at) / Fold change /veh C10orf10 (11716521_a_at) / RFU C5orf56 (11738089_at) / Fold change /veh C5orf56 (11738089_at) / RFU CYB561 (11721691_x_at) / Fold change /veh CYB561 (11721691_x_at) / RFU ANKRD19P (11752326_a_at) / Fold change /veh ANKRD19P (11752326_a_at) / RFU OR2T12 /// OR2T33 /// OR2T8 (11738714_s_at) / Fold change /veh OR2T12 /// OR2T33 /// OR2T8 (11738714_s_at) / RFU VCAN (11748164_a_at) / Fold change /veh VCAN (11748164_a_at) / RFU JSRP1 (11732532_at) / Fold change /veh JSRP1 (11732532_at) / RFU KRTAP10-11 (11738290_x_at) / Fold change /veh KRTAP10-11 (11738290_x_at) / RFU MYO3A (11730013_a_at) / Fold change /veh MYO3A (11730013_a_at) / RFU EBF3 (11725865_a_at) / Fold change /veh EBF3 (11725865_a_at) / RFU CAMK2N1 (11719241_x_at) / Fold change /veh CAMK2N1 (11719241_x_at) / RFU C5orf56 (11738088_a_at) / Fold change /veh C5orf56 (11738088_a_at) / RFU OLFML3 (11715873_a_at) / Fold change /veh OLFML3 (11715873_a_at) / RFU LOC100653217 /// NTM (11731650_a_at) / Fold change /veh LOC100653217 /// NTM (11731650_a_at) / RFU MAPK11 (11762145_a_at) / Fold change /veh MAPK11 (11762145_a_at) / RFU FIZ1 (11724087_x_at) / Fold change /veh FIZ1 (11724087_x_at) / RFU OASL (11726364_x_at) / Fold change /veh OASL (11726364_x_at) / RFU SOX15 (11748057_x_at) / Fold change /veh SOX15 (11748057_x_at) / RFU CD79A (11719716_a_at) / Fold change /veh CD79A (11719716_a_at) / RFU HIST1H1D (11736915_at) / Fold change /veh HIST1H1D (11736915_at) / RFU CASKIN2 (11723855_a_at) / Fold change /veh CASKIN2 (11723855_a_at) / RFU LOC730098 (11760151_x_at) / Fold change /veh LOC730098 (11760151_x_at) / RFU OR4N2 (11742367_at) / Fold change /veh OR4N2 (11742367_at) / RFU PRRT2 (11749266_a_at) / Fold change /veh PRRT2 (11749266_a_at) / RFU SNX32 (11753110_a_at) / Fold change /veh SNX32 (11753110_a_at) / RFU CDHR5 (11726645_a_at) / Fold change /veh CDHR5 (11726645_a_at) / RFU RCAN1 (11760418_a_at) / Fold change /veh RCAN1 (11760418_a_at) / RFU FAM167A (11723789_a_at) / Fold change /veh FAM167A (11723789_a_at) / RFU FAM26E (11764081_at) / Fold change /veh FAM26E (11764081_at) / RFU ISYNA1 (11749810_s_at) / Fold change /veh ISYNA1 (11749810_s_at) / RFU ACY1 (11761880_at) / Fold change /veh ACY1 (11761880_at) / RFU 11764098_at / Fold change /veh 11764098_at / RFU SAMD14 (11745864_x_at) / Fold change /veh SAMD14 (11745864_x_at) / RFU NPB (11741838_a_at) / Fold change /veh NPB (11741838_a_at) / RFU TMPRSS6 (11731388_a_at) / Fold change /veh TMPRSS6 (11731388_a_at) / RFU KRTAP10-2 (11738614_at) / Fold change /veh KRTAP10-2 (11738614_at) / RFU ARHGAP8 /// PRR5-ARHGAP8 (11727945_x_at) / Fold change /veh ARHGAP8 /// PRR5-ARHGAP8 (11727945_x_at) / RFU KRTAP5-7 /// NADSYN1 (11734609_at) / Fold change /veh KRTAP5-7 /// NADSYN1 (11734609_at) / RFU RASL12 (11751679_a_at) / Fold change /veh RASL12 (11751679_a_at) / RFU CDKN2B (11736163_a_at) / Fold change /veh CDKN2B (11736163_a_at) / RFU PRF1 (11729649_at) / Fold change /veh PRF1 (11729649_at) / RFU, ZNF638 /// ZNF638-IT1 / Fold change vs veh, ZNF638 /// ZNF638-IT1 / RFU, PANK3 / Fold change vs veh, PANK3 / RFU, SH3YL1 / Fold change vs veh, SH3YL1 / RFU, ZEB2 / Fold change vs veh, ZEB2 / RFU, NRIP1 / Fold change vs veh, NRIP1 / RFU, PTTG1IP / Fold change vs veh, PTTG1IP / RFU, CAPN2 / Fold change vs veh, CAPN2 / RFU, MED14 / Fold change vs veh, MED14 / RFU, SNORA58 / Fold change vs veh, SNORA58 / RFU, C1orf63 / Fold change vs veh, C1orf63 / RFU, LRRFIP1 / Fold change vs veh, LRRFIP1 / RFU, NDUFAF7 / Fold change vs veh, NDUFAF7 / RFU, SLC12A2 / Fold change vs veh, SLC12A2 / RFU, IBTK / Fold change vs veh, IBTK / RFU, ESF1 / Fold change vs veh, ESF1 / Fold change vs veh, TMEM50B / RFU, TAOK1 / Fold change vs veh, TAOK1 / RFU, ACBD3 / Fold change vs veh, ACBD3 / RFU, TMA16 / Fold change vs veh, TMA16 / RFU, RWDD3 / Fold change vs veh, RWDD3 / RFU, BCAT1 / Fold change vs veh, BCAT1 / RFU, EDEM3 / Fold change vs veh, EDEM3 / RFU, TMEM33 / Fold change vs veh, TMEM33 / RFU, WDR75 / Fold change vs veh, WDR75 / RFU, AHCTF1 / Fold change vs veh, AHCTF1 / RFU, TFRC / Fold change vs veh, TFRC / RFU, ZDHHC17 / Fold change vs veh, ZDHHC17 / RFU, NOM1 / Fold change vs veh, NOM1 / RFU, ARL8B / Fold change vs veh, ARL8B / RFU, ZBTB11 / Fold change vs veh, ZBTB11 / RFU, TAMM41 / Fold change vs veh, TAMM41 / RFU, KIAA1704 /// LOC100996395 / Fold change vs veh, KIAA1704 /// LOC100996395 / RFU, ING1 / Fold change vs veh, ING1 / RFU, TRMT61B / Fold change vs veh, TRMT61B / RFU, FUBP3 / Fold change vs veh, FUBP3 / RFU, TP53 / Fold change vs veh, TP53 / RFU, TNKS2 / Fold change vs veh, TNKS2 / RFU, ZFP14 / Fold change vs veh, ZFP14 / RFU, ACTR2 / Fold change vs veh, ACTR2 / RFU, PPP3R1 / Fold change vs veh, PPP3R1 / RFU, PIK3R1 / Fold change vs veh, PIK3R1 / RFU, HNRNPA1 / Fold change vs veh, HNRNPA1 / RFU, RNF170 / Fold change vs veh, RNF170 / RFU, ZNF28 / Fold change vs veh, ZNF28 / RFU, RNGTT / Fold change vs veh, RNGTT / RFU, OGT / Fold change vs veh, OGT / RFU, BRD1 / Fold change vs veh, BRD1 / RFU, MARS / Fold change vs veh, MARS / RFU, ZNF655 / Fold change vs veh, ZNF655 / RFU, FAHD1 / Fold change vs veh, FAHD1 / RFU, BDP1 / Fold change vs veh, BDP1 / RFU, LRRCC1 / Fold change vs veh, LRRCC1 / RFU, ARID1A / Fold change vs veh, ARID1A / RFU, ZNF146 / Fold change vs veh, ZNF146 / RFU, ZNF330 / Fold change vs veh, ZNF330 / RFU, GPN3 / Fold change vs veh, GPN3 / RFU, C9orf123 / Fold change vs veh, C9orf123 / RFU, N4BP2L2 / Fold change vs veh, N4BP2L2 / RFU, ARFIP1 / Fold change vs veh, ARFIP1 / RFU, FAM179B / Fold change vs veh, FAM179B / RFU, BCL10 / Fold change vs veh, BCL10 / RFU, UHRF1BP1L / Fold change vs veh, UHRF1BP1L / RFU, BET1 / Fold change vs veh, BET1 / RFU, CNOT2 / Fold change vs veh, CNOT2 / RFU, ZNF268 / Fold change vs veh, ZNF268 / Fold change vs veh, ZNF507 / RFU, DGCR2 / Fold change vs veh, DGCR2 / RFU, WDSUB1 / Fold change vs veh, WDSUB1 / Fold change vs veh, HSP90B1 /// MIR3652 / RFU, ADSS / Fold change vs veh, ADSS / RFU, GK / Fold change vs veh, GK / RFU, ZNF148 / Fold change vs veh, ZNF148 / RFU, TAF9 / Fold change vs veh, TAF9 / RFU, SLC1A5 / Fold change vs veh, SLC1A5 / RFU, SLMO2 / Fold change vs veh, SLMO2 / RFU, ABCC4 / Fold change vs veh, ABCC4 / RFU, LOC101060439 /// RAP1B / Fold change vs veh, LOC101060439 /// RAP1B / RFU, RFX7 / Fold change vs veh, RFX7 / RFU, GTPBP10 / Fold change vs veh, GTPBP10 / RFU, CNEP1R1 / Fold change vs veh, CNEP1R1 / RFU, BIVM-ERCC5 /// ERCC5 / Fold change vs veh, BIVM-ERCC5 /// ERCC5 / RFU, ILF3 / Fold change vs veh, ILF3 / RFU 11762660_at / Fold change /veh 11762660_at / RFU VCAN (11757783_s_at) / Fold change /veh VCAN (11757783_s_at) / RFU DDX43 (11728927_at) / Fold change /veh DDX43 (11728927_at) / RFU KRT8 (11758188_x_at) / Fold change /veh KRT8 (11758188_x_at) / RFU NKD1 (11759106_at) / Fold change /veh NKD1 (11759106_at) / RFU SRD5A1 (11742802_a_at) / Fold change /veh SRD5A1 (11742802_a_at) / RFU TPSAB1 /// TPSB2 (11721975_s_at) / Fold change /veh TPSAB1 /// TPSB2 (11721975_s_at) / RFU GSTM3 (11746129_a_at) / Fold change /veh GSTM3 (11746129_a_at) / RFU IL23R (11737362_x_at) / Fold change /veh IL23R (11737362_x_at) / RFU TMEM51 (11727254_a_at) / Fold change /veh TMEM51 (11727254_a_at) / RFU PIWIL2 (11732686_x_at) / Fold change /veh PIWIL2 (11732686_x_at) / RFU ORM1 (11744905_x_at) / Fold change /veh ORM1 (11744905_x_at) / RFU CCDC152 (11743942_at) / Fold change /veh CCDC152 (11743942_at) / RFU ECM1 (11717891_a_at) / Fold change /veh ECM1 (11717891_a_at) / RFU IL23R (11748794_a_at) / Fold change /veh IL23R (11748794_a_at) / RFU TNFAIP8L3 (11732012_x_at) / Fold change /veh TNFAIP8L3 (11732012_x_at) / RFU MBOAT4 (11741988_at) / Fold change /veh MBOAT4 (11741988_at) / RFU 11764193_at / Fold change /veh 11764193_at / RFU TMEM53 (11763286_at) / Fold change /veh TMEM53 (11763286_at) / RFU MAGEB2 (11727129_at) / Fold change /veh MAGEB2 (11727129_at) / RFU TMEM200A (11744735_a_at) / Fold change /veh TMEM200A (11744735_a_at) / RFU CCDC152 (11751479_a_at) / Fold change /veh CCDC152 (11751479_a_at) / RFU FAM211A (11726209_a_at) / Fold change /veh FAM211A (11726209_a_at) / RFU RGS16 (11746705_a_at) / Fold change /veh RGS16 (11746705_a_at) / RFU VCAN (11755009_s_at) / Fold change /veh VCAN (11755009_s_at) / RFU RHOB (11743442_s_at) / Fold change /veh RHOB (11743442_s_at) / RFU RGS16 (11720943_a_at) / Fold change /veh RGS16 (11720943_a_at) / RFU RGS16 (11720944_at) / Fold change /veh RGS16 (11720944_at) / RFU, VPS4B / Fold change vs veh, VPS4B / RFU, CREB1 / Fold change vs veh, CREB1 / RFU, DNAJC13 / Fold change vs veh, DNAJC13 / RFU, GNAQ / Fold change vs veh, GNAQ / RFU, CDK5R1 / Fold change vs veh, CDK5R1 / RFU, ZRANB3 / Fold change vs veh, ZRANB3 / RFU, CUL4A / Fold change vs veh, CUL4A / RFU, CCNY / Fold change vs veh, CCNY / RFU, UFL1 / Fold change vs veh, UFL1 / RFU, COG3 / Fold change vs veh, COG3 / RFU, DIAPH2 / Fold change vs veh, DIAPH2 / RFU, SKA2 / Fold change vs veh, SKA2 / RFU, AFF3 / Fold change vs veh, AFF3 / RFU, LMF1 / Fold change vs veh, LMF1 / RFU, IPO11 / Fold change vs veh, IPO11 / RFU, DFFB / Fold change vs veh, DFFB / RFU, FOXP1 / Fold change vs veh, FOXP1 / RFU, CARD8 / Fold change vs veh, CARD8 / RFU, STRN3 / Fold change vs veh, STRN3 / RFU, ADK / Fold change vs veh, ADK / RFU, RASSF2 / Fold change vs veh, RASSF2 / RFU, WIPF1 / Fold change vs veh, WIPF1 / RFU, LARP1B / Fold change vs veh, LARP1B / RFU, RASA1 / Fold change vs veh, RASA1 / RFU, RB1 / Fold change vs veh, RB1 / RFU, PPFIA1 / Fold change vs veh, PPFIA1 / RFU, MAT2A / Fold change vs veh, MAT2A / RFU, CCT5 / Fold change vs veh, CCT5 / RFU, WDR92 / Fold change vs veh, WDR92 / RFU, CUX1 / Fold change vs veh, CUX1 / RFU, TTC7A / Fold change vs veh, TTC7A / RFU, TMEM135 / Fold change vs veh, TMEM135 / RFU, DEPTOR / Fold change vs veh, DEPTOR / RFU, CPM / Fold change vs veh, CPM / RFU, DNAJB6 / Fold change vs veh, DNAJB6 / RFU, CACNA2D3 / Fold change vs veh, CACNA2D3 / RFU, DTX4 / Fold change vs veh, DTX4 / RFU, TFCP2 / Fold change vs veh, TFCP2 / RFU, GMCL1 /// GMCL1P1 / Fold change vs veh, GMCL1 /// GMCL1P1 / RFU, AEBP2 / Fold change vs veh, AEBP2 / RFU, SNHG1 /// SNORD22 /// SNORD25 /// SNORD26 /// SNORD27 /// SNORD28 /// SNORD29 /// SNORD31 / Fold change vs veh, SNHG1 /// SNORD22 /// SNORD25 /// SNORD26 /// SNORD27 /// SNORD28 /// SNORD29 /// SNORD31 / Fold change (Aza/veh), C12orf56 (ProbeSet 11735607_a_at) / Fold change (ACY-1035/veh), C12orf56 (ProbeSet 11735607_a_at) / Fold change (Aza/veh), FGFR1OP (ProbeSet 11751329_s_at) / Fold change (ACY-1035/veh), FGFR1OP (ProbeSet 11751329_s_at) / Fold change (Aza/veh), VPS36 (ProbeSet 11739960_a_at) / Fold change (ACY-1035/veh), VPS36 (ProbeSet 11739960_a_at) / RFU SYPL1 (11715823_x_at) / Fold change /veh SYPL1 (11715823_x_at) / RFU IGFBP7 (11715501_s_at) / Fold change /veh IGFBP7 (11715501_s_at) / RFU REEP3 (11722064_at) / Fold change /veh REEP3 (11722064_at) / RFU IGLL1 (11728026_x_at) / Fold change /veh IGLL1 (11728026_x_at): dose or concentration left out as unconfirmed
Conditions: MV-4-11 cells, 48 hours

Q: For Nc1ncn([C@@H]2O[C@H](CO)[C@@H](O)[C@H]2O)c(=O)n1 [azacitidine], which “RFU CDKN2B (11736163_a_at)” value is on record?
A: Its value is 8.51 RFU.
